Measurements published in PMC6025358 (Marine Drugs, 2018).

Molecular target: rat α3β4 nAChR (Rattus norvegicus, UniProt P04757+P12392)
Test: cell-based
Conditions: for inhibition at 0.1 µM / inhibition at 1 µM: read-out: Inhibition of ACh-evoked α3β4 nAChR-mediated current

Sequence of rat α3β4 nAChR (P04757 26-499 limits assumed): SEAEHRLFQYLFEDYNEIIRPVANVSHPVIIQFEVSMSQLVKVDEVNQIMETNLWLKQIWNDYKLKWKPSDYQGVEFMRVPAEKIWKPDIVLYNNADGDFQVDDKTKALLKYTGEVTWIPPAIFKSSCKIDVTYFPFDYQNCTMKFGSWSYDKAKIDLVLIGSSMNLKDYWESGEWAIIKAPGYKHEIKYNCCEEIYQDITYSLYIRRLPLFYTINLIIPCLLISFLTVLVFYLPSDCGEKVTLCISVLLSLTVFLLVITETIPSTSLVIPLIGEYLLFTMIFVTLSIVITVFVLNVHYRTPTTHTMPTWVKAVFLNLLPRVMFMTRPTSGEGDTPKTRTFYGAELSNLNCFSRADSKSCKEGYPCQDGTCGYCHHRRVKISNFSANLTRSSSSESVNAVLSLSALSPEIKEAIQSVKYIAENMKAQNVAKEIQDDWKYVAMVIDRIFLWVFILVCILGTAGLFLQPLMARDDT
Sequence of rat α3β4 nAChR (P12392 21-495 limits assumed): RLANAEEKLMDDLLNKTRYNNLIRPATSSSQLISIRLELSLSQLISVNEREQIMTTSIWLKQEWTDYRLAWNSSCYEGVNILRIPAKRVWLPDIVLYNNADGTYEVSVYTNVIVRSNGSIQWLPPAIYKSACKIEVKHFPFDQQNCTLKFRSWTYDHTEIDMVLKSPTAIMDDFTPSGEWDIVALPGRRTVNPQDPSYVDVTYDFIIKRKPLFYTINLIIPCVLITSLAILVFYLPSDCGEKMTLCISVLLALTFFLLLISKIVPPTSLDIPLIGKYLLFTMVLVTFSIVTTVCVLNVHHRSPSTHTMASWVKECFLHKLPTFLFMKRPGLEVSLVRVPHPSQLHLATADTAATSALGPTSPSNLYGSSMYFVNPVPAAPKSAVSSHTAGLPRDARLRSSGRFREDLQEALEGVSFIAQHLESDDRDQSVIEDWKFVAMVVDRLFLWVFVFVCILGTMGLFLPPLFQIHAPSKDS

Question: Which results are given for CC[C@H](C)[C@@H]1NC(=O)[C@@H]2CCCN2C(=O)[C@H](CO)NC(=O)[C@H](CCSC)NC(=O)[C@H](C)NC(=O)[C@H](CO)NC(=O)[C@@H]2CSSC[C@H](NC(=O)CN)C(=O)N[C@@H](CSSC[C@@H](C(N)=O)NC1=O)C(=O)N[C@@H](CO)C(=O)N[C@@H](Cc1c[nH]cn1)C(=O)N1CCC[C@H]1C(=O)N[C@@H](C(C)C)C(=O)N2 [TxID]?
Answer: inhibition at 0.1 µM: ~80%; inhibition at 1 µM: ~100%

Question: Which IC50 does the source give for CC[C@H](C)[C@@H]1NC(=O)[C@@H]2CCCN2C(=O)[C@H](CO)NC(=O)[C@H](CC[S+](C)[O-])NC(=O)[C@H](C)NC(=O)[C@H](CO)NC(=O)[C@@H]2CSSC[C@H](NC(=O)CN)C(=O)N[C@@H](CSSC[C@@H](C(N)=O)NC1=O)C(=O)N[C@@H](CO)C(=O)N[C@@H](Cc1c[nH]cn1)C(=O)N1CCC[C@H]1C(=O)N[C@@H](C(C)C)C(=O)N2 (some centres unmarked) [[MO]TxID] here?
Answer: 245 nM

Question: What about the inhibition at 0.1 µM of the same molecule?
Answer: 25%

Question: And the inhibition at 1 µM?
Answer: 72%
